From patent publication US10472334B2, “Small molecules for inhibiting male fertility” (The University of North Carolina at Chapel Hill, priority 2014, dated 2019)
Like-named read-outs stand apart in the source and are kept apart here.

What was measured:
[1] = test system: human sperm motility; assay: Computer-assisted sperm analysis (CASA) of human sperm motility; type: cell-based; conditions: for IC50: Homo sapiens, Sperm
Description: In another embodiment, a computer-assisted sperm analysis (CASA) can be used as a live cell compound screen for determining the effect of compounds on human sperm motility. Additionally, to facilitate the IC50 evaluation of compounds using different ejaculates, reducing inter-assay variation due to differences in sperm quality in different semen samples, an index of relative motility inhibition (RMI) was developed.
This is calculated as: RMI=[% motility*VSL]; percentage of motile sperm (% motility) or the percentage of progressively motile sperm (% progressive motility, RPMI) multiplied by the straight-line velocity (VSL); the average velocity measured in a straight line from the beginning to the end of a track in μm/sec.
Normalized RMI can be calculated by dividing the RMI of each experimental condition by its respective DMSO control.
Computer-assisted sperm analysis (CASA) was used as a live cell compound screen for determining the effect of compounds on human sperm motility. Computer-assisted sperm analysis (CASA) was performed using the approach taught in Mitra et al., Biology of Reproduction, Vol. 82, p 491 (2010), to determine the parameters of the control versus compound-treated spermatozoa. The parameters measured are: average pathway velocity (VAP: the average velocity of the smoothed cell path in 1 m/sec), the straight-line velocity (VSL: the average velocity measured in a straight line from the beginning to the end of track in 1 m/sec), the curvilinear velocity (VCL: the average velocity measured over the actual point-to-point track of the cell in 1 m/sec), the lateral head amplitude (ALH: amplitude of lateral head displacement in 1 m), the beat cross-frequency (BCF: frequency of sperm head crossing the sperm average path in Hz), the straightness (STR: the average value of the ratio VSL/VAP in %), and the linearity (LIN: the average value of the ratio VSL/VCL in %). The sperm motility parameters are assessed in pre-warmed (37° C.) two- or four-chambered 20-mm Leja slides, loading 5 μL or 2 μL, respectively, of the samples in each chamber and immediately using CASA. This computerized measuring device included a phase-contrast microscope (Olympus CX41), a camera, a mini-therm stage warmer, an image digitizer, and a computer to store and analyze data. The software used for data analysis is the HTR Ceros 12.3 (Hamilton-Thorne Biosciences). A range of 13 to 20 fields are scanned from each chamber. Progressive cells had to have a minimum of 25 μm/sec VAP and 80% of STR.
To facilitate the IC50 evaluation of compounds using different ejaculates, reducing inter-assay variation due to differences in sperm quality in different semen samples, an index of relative motility inhibition (RMI) was developed. This is calculated as: RMI=[% motility*VSL]; percentage of motile sperm (% motility) or the percentage of progressively motile sperm (% progressive motility, RPMI) multiplied by the straight-line velocity (VSL); the average velocity measured in a straight line from the beginning to the end of a sperm track in μm/sec. Normalized RMI (RPMI) was calculated by dividing the RMI of each experimental condition by its respective DMSO control.
The analysis of sperm motility was carried out with computer-assisted sperm analysis (CASA) (Ceros version 12.3 software; Hamilton-Thorne), using the techniques taught in Mitra et al., Biology of Reproduction, Vol. 82, p 491 (2010).

[2] = In vitro toxicity, cell viability; type: cell-based
Description: The percent of control activity was calculated by comparing the fluorescence reading in the presence of test compound to that in the absence of a test (control) compound. Subsequently, the percent of inhibition was calculated by subtraction of the percent of control value from 100. IC50 values were determined by non-linear regression analysis of the concentration-response curves. These parameters are obtained by Hill equation curve fitting. See, for example, Nociari, M. M. et al. (1998), J. Immunol. Meth., 213: 157-167.

IC50 ([1]; FIG. 10, RMI using % progressive motility, read-out: IC50 in terms of progressive motility): ~4.3 µM
IC50 ([1]; FIGS. 3 and 4, read-out: IC50, CASA, RMI (relative motility)): ~7.5 µM
IC50 ([1]; relative motility index using % progressive motility, read-out: CASA IC50 RPMI): 7.5 µM
Structure (SMILES): CCOC(=O)CSc1nc(NNC(=O)OC)nc(Nc2ccc(NC(=O)OC)c(O)c2)n1 [TZ4_121, [4-(3-Hydroxy-4-methoxycarbonylamino-phenylamino)-6-(N′methoxycarbonyl-hydrazino)-1,3,5-triazin-2-ylsulfanyl]-acetic acid ethyl ester]
change in progressive motility ([1]; FIG. 7, 12.5 μM): significant decrease in progressive motility
time until infertility would likely result, time course of sperm motility ([1]; concentration of around 20 μM, FIG. 5): 3 to 5 min
sperm killed ([1]; within 3 minutes): > 70%
IC50 ([2]; FIG. 2, read-out: cell viability IC50): ~17 µM
IC50 ([2]; read-out: In vitro toxicology IC50): ~20 µM
